Measured values: PMC12322656, “N‐ to C‐Glycoside Rearrangement of Uridine 5′‐Phosphate in Two Enzymatic Steps for the Production of Pseudouridine 5′‐Phosphate” (Biotechnology and Bioengineering, 2025)
Where a chain is given by its changes, count along the chain named.

What was measured:
[1] = molecular target: T1, PpnN (purine/pyrimidine nucleotide 5'-phosphate nucleosidase; EC 3.2.2.10) (Escherichia coli, UniProt P0ADR8, R341A/Y347A); assay: initial-rate inhibition, HPLC of uracil release, nonlinear fit; type: biochemical; conditions: substrate UMP; 50 mM HEPES pH 7.5, 40 °C; competitive; RY variant, monomer
T1 construct: subunit 51,794 Da (wild type; RY 51,440 Da); wild type tetramer, RY variant monomer
T1 sequence (P0ADR8 1-454 R341A/Y347A): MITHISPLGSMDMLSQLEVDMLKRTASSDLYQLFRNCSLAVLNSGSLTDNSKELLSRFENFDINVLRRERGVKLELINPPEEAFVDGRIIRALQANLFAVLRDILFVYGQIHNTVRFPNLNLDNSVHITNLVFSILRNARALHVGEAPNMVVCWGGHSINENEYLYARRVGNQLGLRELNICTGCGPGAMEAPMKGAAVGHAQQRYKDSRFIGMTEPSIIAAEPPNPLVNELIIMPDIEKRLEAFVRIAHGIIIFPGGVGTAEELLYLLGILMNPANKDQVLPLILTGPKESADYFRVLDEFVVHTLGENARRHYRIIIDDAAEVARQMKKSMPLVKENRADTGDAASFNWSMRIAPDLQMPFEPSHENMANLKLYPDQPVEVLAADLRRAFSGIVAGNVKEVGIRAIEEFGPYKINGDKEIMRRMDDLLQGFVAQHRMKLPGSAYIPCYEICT

[2] = molecular target: T2, PpnN (purine/pyrimidine nucleotide 5'-phosphate nucleosidase; EC 3.2.2.10) (Escherichia coli, UniProt P0ADR8); assay: as above; type: biochemical; conditions: substrate UMP; 50 mM HEPES pH 7.5, 40 °C; competitive; wild type
T2 construct: subunit 51,794 Da (wild type; RY 51,440 Da); wild type tetramer, RY variant monomer
T2 sequence (P0ADR8 1-454): T1 sequence (P0ADR8 1-454 R341A/Y347A) with A341R, A347Y

`O=P(O)(O)OC[C@H]1OC(O)[C@H](O)[C@@H]1O` (stereo partly drawn) [D-ribose 5-phosphate] was tested. Which Ki [1] did it give?
The Ki was 1200 ± 100 µM.

What about the Ki [2] of the same compound?
Its Ki is 100 µM.
